One may read the IC50 as the concentration at which inhibition is half-maximal. In general, half-life refers to the time in which the quantity being followed falls by half. As a reminder, the clearance is a measure of how efficiently the substance is removed, as volume per time. For orientation: bioavailability means the share of a dose that reaches the circulation, judged against a reference dose that is usually intravenous.

Some results are limits rather than exact numbers.

This is an account of results in ChEMBL document CHEMBL1147927, “Piperazinyl CCR1 antagonists--optimization of human liver microsome stability” (Bioorg Med Chem Lett, 2007).

Data set [1] is described as follows: Metabolic stability in human liver microsomes. The class given is ADME, Microsome. A general note: Microsomes from liver hold many membrane-bound enzymes, among them those of drug oxidation.
A short description of data set [2]: Metabolic stability in dog liver microsomes. The format is ADME, Canis lupus familiaris, Microsome.
Data set [3] can be described thus: Metabolic stability in monkey liver microsomes. The format is ADME, Macaca fascicularis, Microsome. The following applies: cynomolgus monkey.
The nature of data set [4]: Activity at CCL3 by chemotaxis assay. The format is functional.
Data set [5] can be described thus: Metabolic stability in rat liver microsomes. The class given is ADME, Microsome.
For data set [6], the target named is T1, C-C chemokine receptor type 1 (Homo sapiens, UniProt P32246).
T1 sequence (P32246 whole entry): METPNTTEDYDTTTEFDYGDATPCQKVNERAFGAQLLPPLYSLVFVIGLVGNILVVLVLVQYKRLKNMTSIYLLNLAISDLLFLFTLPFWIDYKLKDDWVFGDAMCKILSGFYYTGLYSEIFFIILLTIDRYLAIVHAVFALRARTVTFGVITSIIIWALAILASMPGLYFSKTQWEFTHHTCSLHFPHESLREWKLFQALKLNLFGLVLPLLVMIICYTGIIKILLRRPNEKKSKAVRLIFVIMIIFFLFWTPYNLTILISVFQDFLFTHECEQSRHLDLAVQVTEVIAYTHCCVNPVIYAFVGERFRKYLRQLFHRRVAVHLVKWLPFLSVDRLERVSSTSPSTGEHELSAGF
As to the kind of experiment: Binding Affinity at CCL3.

A short description of data set [7]: Half life in rat. The class given is ADME, organism-based. To be noted: in vivo.
Data set [8] in a line: Plasma clearance in iv dosed rat. The format is ADME, organism-based.
Data set [9] is described as follows: Volume of distribution at steady state in rat. The following applies: in vivo, read-out: Vdss. The class given is ADME, organism-based.
Data set [10] in a line: Plasma clearance in iv dosed dog. The format is ADME, organism-based, Canis lupus familiaris.
Data set [11] can be described thus: Plasma clearance in monkey. The class given is ADME, organism-based, Macaca fascicularis. To be noted: cynomolgus monkey.
Data set [12] is described as follows: Bioavailability in rat. The following applies: in vivo. The format is ADME, organism-based.
Data set [13] in a line: Volume of distribution at steady state in monkey. The format is ADME, organism-based, Macaca fascicularis. The following applies: cynomolgus monkey, in vivo; read-out: Vdss.
Data set [14] can be described thus: Half life in dog. The class given is ADME, organism-based, Canis lupus familiaris. To be noted: in vivo.
A short description of data set [15]: Volume of distribution at steady state in dog. The following applies: in vivo, read-out: Vdss. The format is ADME, organism-based, Canis lupus familiaris.
A short description of data set [16]: Half life in monkey. The class given is ADME, organism-based, Macaca fascicularis. The following applies: cynomolgus monkey, in vivo.
The nature of data set [17]: Bioavailability in dog. The format is ADME, organism-based, Canis lupus familiaris. To be noted: in vivo.
Data set [18] can be described thus: Bioavailability in monkey. The format is ADME, organism-based, Macaca fascicularis. To be noted: cynomolgus monkey, in vivo.

Turning to `C[C@@H]1CN(Cc2ccc(F)cc2)[C@@H](C)CN1C(=O)COc1ccc(Cl)cc1NC(=O)NCCN`, the CLhep predicted in [1] is 4.9 mL/min/kg; in [2], 11 mL/min/kg; in data set [3], 18 mL/min/kg; in data set [5], 24 mL/min/kg. For the same molecule, the results for the IC50 in data set [4] and in data set [6] were 1 nM and 8 nM, respectively.

Regarding `C[C@@H]1CN(Cc2ccc(F)cc2)[C@@H](C)CN1C(=O)COc1ccc(Cl)cc1C(=O)NCCN`, in [7], the half-life is 1 h. The clearance in data set [8] turned out to be 184 mL/min/kg. In addition, the CLhep predicted in data set [1] was 5.9 mL/min/kg; in [2], 25 mL/min/kg; in [3], 36 mL/min/kg; in data set [5], 22 mL/min/kg. Further, the Vd in data set [9] is 7.7 L/kg. Besides, the IC50 in data set [4] came to 3 nM; in data set [6], 30 nM.

`C[C@@H]1CN(Cc2ccc(F)cc2)CCN1C(=O)COc1ccc(Cl)cc1NC(N)=O` [BX 471 FREE BASE]: the half-life was 0.7 h in data set [7], 4 h in data set [14] and 0.8 h in [16]. For the same molecule, the clearance worked out at 1.7 mL/min/kg in data set [10], 33 mL/min/kg in data set [8] and 8.9 mL/min/kg in data set [11]. In addition, the CLhep predicted in data set [1] was 16 mL/min/kg; in [2] it was 28 mL/min/kg; in data set [3], 42 mL/min/kg; in data set [5] it was 62 mL/min/kg. For the same molecule, the bioavailability in data set [12] was 2%. For the same molecule, the Vd in data set [13] amounted to 0.6 L/kg; in data set [9], 1.7 L/kg; in data set [15], 0.6 L/kg. Besides, the IC50 in data set [4] was determined as 4 nM.

On to `C[C@@H]1CN(Cc2ccc(F)cc2)[C@@H](C)CN1C(=O)COc1ccc(Cl)cc1C(=O)CCC(=O)O`, for which the half-life is 2.3 h in [7] and 5.8 h in [14]. Besides, the clearance is 9.7 mL/min/kg in [10] and 42 mL/min/kg in data set [8]. For the same molecule, the CLhep predicted is 4.7 mL/min/kg in data set [1], 11 mL/min/kg in [2], 18 mL/min/kg in data set [3] and 31 mL/min/kg in [5]. For the same molecule, the figures for the bioavailability in data set [12] and in data set [17] were 9% and 100%, respectively. Moreover, the Vd in data set [9] was found to be 4 L/kg; in data set [15], 4.2 L/kg. The IC50 is under 0.5 nM in [4] and 13 nM in data set [6].

`C[C@@H]1CN(Cc2ccc(F)cc2)[C@@H](C)CN1C(=O)COc1ccc(Cl)cc1CS(=O)(=O)O`: the half-life was 4.6 h in data set [7], 21 h in [14] and 1.1 h in data set [16]. Further, the clearance in [10] was 0.2 mL/min/kg; in data set [8], 17 mL/min/kg; in data set [11], 51 mL/min/kg. For the same molecule, the CLhep predicted is 4.7 mL/min/kg in [1], 11 mL/min/kg in data set [2], 18 mL/min/kg in data set [3] and 21 mL/min/kg in data set [5]. For the same molecule, the bioavailability in data set [12] came out at 40%; in data set [18], 19%; in [17], 100%. The Vd came out at 2.1 L/kg in data set [13], 2.6 L/kg in [9] and 0.4 L/kg in data set [15]. Moreover, the IC50 is 3 nM in data set [4] and 23 nM in [6].

Take `C[C@@H]1CN(Cc2ccc(F)cc2)[C@@H](C)CN1C(=O)COc1ccc(Cl)cc1CC(=O)O`: the half-life in data set [7] is 3.7 h; in data set [14] it was 11 h. Further, the values for the clearance in data set [10] and in [8] were 0.4 mL/min/kg and 5.2 mL/min/kg, respectively. Moreover, the CLhep predicted in data set [1] is 4.7 mL/min/kg; in [2], 11 mL/min/kg; in [3] it was 18 mL/min/kg; in data set [5], 25 mL/min/kg. Further, the Vd worked out at 3.2 L/kg in data set [9] and 0.3 L/kg in data set [15]. In addition, the IC50 in data set [4] is 2 nM; in data set [6] it was 38 nM.

Consider `C[C@@H]1CN(Cc2ccc(F)cc2)CCN1C(=O)COc1ccc(Cl)cc1`, for which the CLhep predicted in data set [1] is 14 mL/min/kg; in data set [2], 27 mL/min/kg; in [3] it was 40 mL/min/kg; in data set [5], 63 mL/min/kg. Moreover, the IC50 in [4] came out at 86 nM; in data set [6], 860 nM.

For the molecule `C[C@@H]1CN(Cc2ccc(F)cc2)[C@@H](C)CN1C(=O)COc1ccc(Cl)cc1C(=O)O`, the figures for the half-life in [7], in [14] and in data set [16] were 14 h, 11 h and 5.9 h, respectively. The clearance was found to be 0.2 mL/min/kg in data set [10], 2.4 mL/min/kg in [8] and 3.4 mL/min/kg in data set [11]. For the same molecule, the CLhep predicted in data set [1] is 4.7 mL/min/kg; in data set [2] it was 11 mL/min/kg; in data set [3] it was 31 mL/min/kg; in [5] it was 20 mL/min/kg. In addition, the Vd is 0.9 L/kg in data set [13], 2.4 L/kg in data set [9] and 0.2 L/kg in data set [15]. Moreover, the figures for the IC50 in data set [4] and in [6] were 68 nM and 59 nM, respectively.
